Activity calls are given as the source filed them.

The target of test [1] is T1, Apoptotic protease-activating factor 1 (Homo sapiens, UniProt O14727).
T1 sequence (O14727 whole entry): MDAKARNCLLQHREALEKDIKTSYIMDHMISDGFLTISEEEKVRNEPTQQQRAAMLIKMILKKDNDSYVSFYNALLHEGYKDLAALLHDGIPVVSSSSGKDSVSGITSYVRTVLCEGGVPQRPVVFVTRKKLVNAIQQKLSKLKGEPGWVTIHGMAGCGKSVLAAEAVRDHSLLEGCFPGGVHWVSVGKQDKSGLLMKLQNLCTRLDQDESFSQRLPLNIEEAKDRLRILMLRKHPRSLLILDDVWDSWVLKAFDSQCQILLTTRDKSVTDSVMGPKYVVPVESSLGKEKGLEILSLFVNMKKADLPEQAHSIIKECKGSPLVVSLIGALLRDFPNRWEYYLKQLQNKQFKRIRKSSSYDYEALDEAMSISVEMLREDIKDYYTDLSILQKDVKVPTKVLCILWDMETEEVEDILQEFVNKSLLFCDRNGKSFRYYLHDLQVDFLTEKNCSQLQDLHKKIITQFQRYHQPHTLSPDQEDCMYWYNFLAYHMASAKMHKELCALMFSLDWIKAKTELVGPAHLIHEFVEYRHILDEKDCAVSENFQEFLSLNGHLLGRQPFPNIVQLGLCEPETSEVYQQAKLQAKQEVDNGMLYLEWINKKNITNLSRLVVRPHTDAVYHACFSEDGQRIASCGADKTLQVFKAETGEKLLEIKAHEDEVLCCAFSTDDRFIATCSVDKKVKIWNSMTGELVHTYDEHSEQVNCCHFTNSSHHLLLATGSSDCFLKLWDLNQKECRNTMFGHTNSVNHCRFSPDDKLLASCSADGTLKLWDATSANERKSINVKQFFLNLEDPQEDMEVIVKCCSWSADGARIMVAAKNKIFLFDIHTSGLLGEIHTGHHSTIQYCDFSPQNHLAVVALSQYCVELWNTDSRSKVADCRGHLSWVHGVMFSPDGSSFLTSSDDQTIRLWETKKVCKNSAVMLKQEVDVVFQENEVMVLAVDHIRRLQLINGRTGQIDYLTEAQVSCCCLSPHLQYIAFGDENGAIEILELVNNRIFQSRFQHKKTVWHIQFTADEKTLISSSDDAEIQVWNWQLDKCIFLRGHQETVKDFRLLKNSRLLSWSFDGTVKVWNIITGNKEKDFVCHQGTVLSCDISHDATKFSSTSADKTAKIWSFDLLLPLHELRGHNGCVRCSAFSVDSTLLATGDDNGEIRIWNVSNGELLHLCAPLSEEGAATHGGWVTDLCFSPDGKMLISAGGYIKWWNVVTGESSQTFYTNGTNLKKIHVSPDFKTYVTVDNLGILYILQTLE
The test is described as follows: activation of Apaf-1 mediated apoptosis – fluorescent, uHTS hits, dose response (AID 588554). The class given is functional.

Test [2] addresses Keap1/Nrf2 (Homo sapiens, UniProt Q14145). Description: Keap1-Nrf2 protein-protein interaction inhibitors, dose response, biochemical, fluorescence polarization, cherry-picked samples (AID 588683). A general note: Polarisation of emitted light reports the rotation of a fluorescent probe.
Test [3] is described as follows: Luminescence Cell-Based Dose Response HTS to Identify Activators of Luciferase Translation or Activity in H4 […] Cells. [Related pubchem assays: 1829 (Project Summary), 1814 (Primary HTS)]. The class given is functional.
The test system of test [4] is H4. Description: Luminescence Cell-Based Dose Response HTS to Identify Activators of 5'UTR Stem-Loop Driven Prion Protein mRNA Translation in H4 Neuroglioblastoma Cells. [Related pubchem assays: 1829 (Project Summary), 1814 (Primary HTS)]. As to conditions: Homo sapiens. The class given is functional.
In test [5] the target is Large T antigen (Simian virus 40, UniProt P03070). The class given is functional, Betapolyomavirus macacae.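 Further: Confirmatory-stage PubChem screen for compounds that inhibit SV40 T antigen.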
Test [6] addresses T2, Mannose-6-phosphate isomerase (Homo sapiens, UniProt P34949).
T2 sequence (P34949 whole entry): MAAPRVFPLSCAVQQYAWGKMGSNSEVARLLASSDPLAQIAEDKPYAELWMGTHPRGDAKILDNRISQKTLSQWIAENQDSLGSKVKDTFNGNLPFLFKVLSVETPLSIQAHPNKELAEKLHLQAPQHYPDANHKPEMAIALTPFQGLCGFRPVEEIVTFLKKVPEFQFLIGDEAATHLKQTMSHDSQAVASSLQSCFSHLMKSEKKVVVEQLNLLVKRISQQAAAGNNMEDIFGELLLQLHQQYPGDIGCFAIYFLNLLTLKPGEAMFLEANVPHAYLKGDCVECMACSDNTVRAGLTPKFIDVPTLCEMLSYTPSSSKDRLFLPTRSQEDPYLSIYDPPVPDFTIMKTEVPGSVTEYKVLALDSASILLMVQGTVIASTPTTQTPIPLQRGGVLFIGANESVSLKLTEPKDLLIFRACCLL
Description: PMI enzyme inhibitors, confirmation, biochemical, fluorescence intensity (AID 1535).

For test [7], the target named is Phosphomannomutase 2 (Homo sapiens, UniProt O15305). The test is described as follows: Counter screen SAR assay for PMM2 inhibitors via a fluorescence intensity assay. [Related pubchem assays (depositor defined):AID1545, AID1574].
Test [8] addresses Potassium voltage-gated channel subfamily KQT member 2 (Rattus norvegicus, UniProt O88943). Description: KCNQ2 channel activators, analog series, SAR follow-up, automated patch clamp, KCNQ2-CHO cells (AID 493113). The class given is functional.
Test [9] addresses T3, Replicative DNA helicase DnaB (Mycobacterium tuberculosis, UniProt P9WMR3).
T3 sequence (P9WMR3 whole entry): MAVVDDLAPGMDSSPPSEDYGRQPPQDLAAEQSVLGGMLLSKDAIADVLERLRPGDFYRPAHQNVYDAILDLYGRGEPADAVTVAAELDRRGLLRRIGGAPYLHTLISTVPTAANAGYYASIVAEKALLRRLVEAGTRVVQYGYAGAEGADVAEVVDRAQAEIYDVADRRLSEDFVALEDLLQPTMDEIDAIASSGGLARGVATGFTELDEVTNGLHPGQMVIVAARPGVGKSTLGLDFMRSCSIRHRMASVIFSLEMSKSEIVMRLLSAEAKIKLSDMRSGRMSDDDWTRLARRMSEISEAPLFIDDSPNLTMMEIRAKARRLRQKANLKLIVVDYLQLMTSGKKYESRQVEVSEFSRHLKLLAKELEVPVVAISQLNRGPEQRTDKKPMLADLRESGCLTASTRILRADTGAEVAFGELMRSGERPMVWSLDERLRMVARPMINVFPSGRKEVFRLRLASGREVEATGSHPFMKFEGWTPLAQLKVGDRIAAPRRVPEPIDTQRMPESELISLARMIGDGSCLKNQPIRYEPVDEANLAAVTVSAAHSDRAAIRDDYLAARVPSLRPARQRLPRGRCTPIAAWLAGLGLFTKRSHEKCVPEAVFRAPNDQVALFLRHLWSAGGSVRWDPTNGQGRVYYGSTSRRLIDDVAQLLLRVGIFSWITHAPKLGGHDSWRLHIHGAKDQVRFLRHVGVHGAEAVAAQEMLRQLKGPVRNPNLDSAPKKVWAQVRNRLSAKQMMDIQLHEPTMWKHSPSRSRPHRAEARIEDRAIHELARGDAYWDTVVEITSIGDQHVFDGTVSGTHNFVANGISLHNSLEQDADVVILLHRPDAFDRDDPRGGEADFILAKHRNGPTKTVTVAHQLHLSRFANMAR
The test is described as follows: DnaB intein splicing inhibitors, dose response, biochemical, cell-free fluorescence (AID 449749). The format is functional.

The target in test [10] is T2, Mannose-6-phosphate isomerase. The test is described as follows: human PMI inhibitors, high substrate, primary screen, biochemical, fluorescence intensity, high mannose 6-phosphate (AID 1220).
In test [11] the target is T4, Protein RecA (Mycobacterium tuberculosis, UniProt P9WHJ3).
T4 sequence (P9WHJ3 whole entry): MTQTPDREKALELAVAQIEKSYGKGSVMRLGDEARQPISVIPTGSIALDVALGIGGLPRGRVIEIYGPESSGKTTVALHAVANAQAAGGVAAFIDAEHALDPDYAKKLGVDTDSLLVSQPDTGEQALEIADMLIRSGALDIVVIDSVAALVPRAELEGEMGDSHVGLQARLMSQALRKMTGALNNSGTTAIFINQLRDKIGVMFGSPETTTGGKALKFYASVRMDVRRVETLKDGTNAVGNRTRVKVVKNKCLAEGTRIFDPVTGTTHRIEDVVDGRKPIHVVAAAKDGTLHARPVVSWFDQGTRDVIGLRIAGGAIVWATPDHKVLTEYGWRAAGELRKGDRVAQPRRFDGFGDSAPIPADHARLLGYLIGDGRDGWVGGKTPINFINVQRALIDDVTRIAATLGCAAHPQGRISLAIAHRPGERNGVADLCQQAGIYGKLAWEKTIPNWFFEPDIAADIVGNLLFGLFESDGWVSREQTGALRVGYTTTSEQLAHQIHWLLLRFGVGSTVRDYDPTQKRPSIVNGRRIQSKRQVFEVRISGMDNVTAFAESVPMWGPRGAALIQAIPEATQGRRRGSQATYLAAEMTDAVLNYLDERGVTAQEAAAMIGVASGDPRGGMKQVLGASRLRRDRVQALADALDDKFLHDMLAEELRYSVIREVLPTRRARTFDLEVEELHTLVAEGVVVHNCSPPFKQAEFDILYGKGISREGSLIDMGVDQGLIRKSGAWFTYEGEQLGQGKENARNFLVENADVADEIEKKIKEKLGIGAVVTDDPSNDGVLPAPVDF
The test is described as follows: Fluorescence Cell-Free Homogeneous Dose Retest to Identify Inhibitors of RecA-Intein Splicing Activity. [Related pubchem assays (depositor defined):AID2097, AID2223, AID489010, AID492950]. The class given is functional.

The target in test [12] is T5, Histone-lysine N-methyltransferase NSD2 (Homo sapiens, UniProt O96028).
T5 sequence (O96028 whole entry): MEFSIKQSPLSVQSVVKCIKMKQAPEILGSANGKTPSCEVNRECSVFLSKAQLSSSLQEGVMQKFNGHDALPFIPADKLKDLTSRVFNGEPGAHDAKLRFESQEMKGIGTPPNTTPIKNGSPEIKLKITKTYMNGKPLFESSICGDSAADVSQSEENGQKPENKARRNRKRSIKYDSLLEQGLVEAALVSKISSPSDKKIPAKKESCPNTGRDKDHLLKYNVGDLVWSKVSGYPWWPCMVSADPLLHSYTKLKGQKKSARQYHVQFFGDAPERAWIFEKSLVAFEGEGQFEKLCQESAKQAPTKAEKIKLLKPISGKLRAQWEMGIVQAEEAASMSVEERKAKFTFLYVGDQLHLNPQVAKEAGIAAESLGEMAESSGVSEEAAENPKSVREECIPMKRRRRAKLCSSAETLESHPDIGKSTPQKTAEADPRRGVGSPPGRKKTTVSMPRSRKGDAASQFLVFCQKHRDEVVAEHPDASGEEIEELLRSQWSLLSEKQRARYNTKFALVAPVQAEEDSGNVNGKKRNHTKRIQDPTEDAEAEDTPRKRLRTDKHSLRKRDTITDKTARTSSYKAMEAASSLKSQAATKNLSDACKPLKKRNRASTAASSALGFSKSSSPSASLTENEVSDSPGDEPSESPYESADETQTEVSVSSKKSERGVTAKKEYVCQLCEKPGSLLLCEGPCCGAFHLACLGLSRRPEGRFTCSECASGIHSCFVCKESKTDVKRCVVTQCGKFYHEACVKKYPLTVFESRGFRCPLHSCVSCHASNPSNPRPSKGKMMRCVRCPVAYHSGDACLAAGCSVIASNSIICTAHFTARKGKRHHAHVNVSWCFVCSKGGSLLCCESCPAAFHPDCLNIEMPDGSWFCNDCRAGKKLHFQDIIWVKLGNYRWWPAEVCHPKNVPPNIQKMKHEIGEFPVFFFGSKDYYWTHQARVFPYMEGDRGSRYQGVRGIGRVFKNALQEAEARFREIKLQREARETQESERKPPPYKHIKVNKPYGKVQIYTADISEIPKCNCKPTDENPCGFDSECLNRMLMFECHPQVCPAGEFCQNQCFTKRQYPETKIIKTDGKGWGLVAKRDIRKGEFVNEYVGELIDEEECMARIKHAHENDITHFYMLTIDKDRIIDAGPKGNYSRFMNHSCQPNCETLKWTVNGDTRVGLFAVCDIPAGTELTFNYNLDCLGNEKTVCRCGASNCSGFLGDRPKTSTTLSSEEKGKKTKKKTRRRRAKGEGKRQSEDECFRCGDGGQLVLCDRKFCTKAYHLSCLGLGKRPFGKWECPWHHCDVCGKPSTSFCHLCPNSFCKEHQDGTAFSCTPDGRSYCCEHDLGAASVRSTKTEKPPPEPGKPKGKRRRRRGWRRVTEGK
The format is biochemical.

The target in test [13] is Lysine-specific demethylase 4C (Homo sapiens, UniProt Q9H3R0). Description: GASC-1 (JMJD2C) histone demethylase inhibitors, dose response, biochemical, DELFIA europium, cherry-picked samples (AID 488835). The format is functional.
Chain of Lysine-specific demethylase 4C (Q9H3R0 whole entry): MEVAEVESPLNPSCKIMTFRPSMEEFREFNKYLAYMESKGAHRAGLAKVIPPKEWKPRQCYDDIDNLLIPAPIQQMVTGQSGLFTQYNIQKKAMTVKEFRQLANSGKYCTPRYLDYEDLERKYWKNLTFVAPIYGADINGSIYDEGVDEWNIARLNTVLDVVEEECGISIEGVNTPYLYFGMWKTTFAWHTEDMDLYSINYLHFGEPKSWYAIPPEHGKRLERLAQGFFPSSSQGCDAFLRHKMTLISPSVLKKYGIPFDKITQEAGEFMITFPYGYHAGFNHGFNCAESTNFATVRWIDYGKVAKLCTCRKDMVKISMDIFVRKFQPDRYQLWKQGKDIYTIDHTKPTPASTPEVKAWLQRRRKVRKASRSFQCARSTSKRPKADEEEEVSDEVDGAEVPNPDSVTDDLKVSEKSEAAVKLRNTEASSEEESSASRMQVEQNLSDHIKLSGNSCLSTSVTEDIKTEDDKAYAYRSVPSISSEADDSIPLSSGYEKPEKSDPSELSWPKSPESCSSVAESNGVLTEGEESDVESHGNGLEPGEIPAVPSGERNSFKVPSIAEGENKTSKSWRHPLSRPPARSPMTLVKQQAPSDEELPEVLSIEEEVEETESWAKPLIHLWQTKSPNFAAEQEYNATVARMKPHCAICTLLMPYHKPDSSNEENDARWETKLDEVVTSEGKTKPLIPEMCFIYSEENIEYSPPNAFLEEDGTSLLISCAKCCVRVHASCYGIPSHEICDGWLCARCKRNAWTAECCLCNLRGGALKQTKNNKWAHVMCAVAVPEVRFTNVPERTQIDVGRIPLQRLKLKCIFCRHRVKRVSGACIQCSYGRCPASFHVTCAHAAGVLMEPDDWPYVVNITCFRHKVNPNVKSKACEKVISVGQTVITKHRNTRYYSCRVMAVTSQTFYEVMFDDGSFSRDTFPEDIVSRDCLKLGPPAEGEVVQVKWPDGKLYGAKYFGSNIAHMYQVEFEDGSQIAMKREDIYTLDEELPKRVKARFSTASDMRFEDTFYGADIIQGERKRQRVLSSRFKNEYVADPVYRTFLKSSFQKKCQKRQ

Chain of Keap1/Nrf2 (Q16236 whole entry): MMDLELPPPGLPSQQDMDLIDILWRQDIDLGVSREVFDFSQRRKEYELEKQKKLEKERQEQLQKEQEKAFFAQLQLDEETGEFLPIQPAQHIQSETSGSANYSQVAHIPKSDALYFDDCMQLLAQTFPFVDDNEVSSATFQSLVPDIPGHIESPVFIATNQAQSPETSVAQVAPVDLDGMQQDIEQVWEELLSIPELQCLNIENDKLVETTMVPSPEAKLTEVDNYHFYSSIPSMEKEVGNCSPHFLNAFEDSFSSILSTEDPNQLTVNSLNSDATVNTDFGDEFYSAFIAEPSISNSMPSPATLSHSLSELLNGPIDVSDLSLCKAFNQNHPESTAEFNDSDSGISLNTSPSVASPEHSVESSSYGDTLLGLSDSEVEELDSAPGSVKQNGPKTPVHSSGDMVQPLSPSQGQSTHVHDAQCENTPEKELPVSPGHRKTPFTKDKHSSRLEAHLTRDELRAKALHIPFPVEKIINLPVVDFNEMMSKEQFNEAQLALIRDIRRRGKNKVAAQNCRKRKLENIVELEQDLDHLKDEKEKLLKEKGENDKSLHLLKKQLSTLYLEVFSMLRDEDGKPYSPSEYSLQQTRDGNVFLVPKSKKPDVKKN
Chain of Keap1/Nrf2 (Q14145 whole entry): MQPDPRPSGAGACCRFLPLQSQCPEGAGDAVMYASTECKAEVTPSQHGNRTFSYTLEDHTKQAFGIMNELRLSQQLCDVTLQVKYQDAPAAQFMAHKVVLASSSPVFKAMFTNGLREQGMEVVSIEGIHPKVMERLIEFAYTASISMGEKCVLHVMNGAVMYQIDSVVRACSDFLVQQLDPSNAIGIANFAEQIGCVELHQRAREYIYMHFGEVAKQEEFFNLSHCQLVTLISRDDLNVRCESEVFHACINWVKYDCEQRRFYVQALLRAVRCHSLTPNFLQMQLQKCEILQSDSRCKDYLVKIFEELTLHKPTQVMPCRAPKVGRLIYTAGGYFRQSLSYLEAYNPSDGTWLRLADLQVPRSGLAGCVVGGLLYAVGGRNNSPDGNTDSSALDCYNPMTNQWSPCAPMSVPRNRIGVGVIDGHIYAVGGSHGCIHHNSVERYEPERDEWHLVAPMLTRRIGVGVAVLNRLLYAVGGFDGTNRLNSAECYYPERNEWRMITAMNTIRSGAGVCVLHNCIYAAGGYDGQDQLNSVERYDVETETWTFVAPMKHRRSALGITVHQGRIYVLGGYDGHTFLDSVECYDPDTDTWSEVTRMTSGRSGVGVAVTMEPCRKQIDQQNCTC
Chain of Large T antigen (P03070 whole entry): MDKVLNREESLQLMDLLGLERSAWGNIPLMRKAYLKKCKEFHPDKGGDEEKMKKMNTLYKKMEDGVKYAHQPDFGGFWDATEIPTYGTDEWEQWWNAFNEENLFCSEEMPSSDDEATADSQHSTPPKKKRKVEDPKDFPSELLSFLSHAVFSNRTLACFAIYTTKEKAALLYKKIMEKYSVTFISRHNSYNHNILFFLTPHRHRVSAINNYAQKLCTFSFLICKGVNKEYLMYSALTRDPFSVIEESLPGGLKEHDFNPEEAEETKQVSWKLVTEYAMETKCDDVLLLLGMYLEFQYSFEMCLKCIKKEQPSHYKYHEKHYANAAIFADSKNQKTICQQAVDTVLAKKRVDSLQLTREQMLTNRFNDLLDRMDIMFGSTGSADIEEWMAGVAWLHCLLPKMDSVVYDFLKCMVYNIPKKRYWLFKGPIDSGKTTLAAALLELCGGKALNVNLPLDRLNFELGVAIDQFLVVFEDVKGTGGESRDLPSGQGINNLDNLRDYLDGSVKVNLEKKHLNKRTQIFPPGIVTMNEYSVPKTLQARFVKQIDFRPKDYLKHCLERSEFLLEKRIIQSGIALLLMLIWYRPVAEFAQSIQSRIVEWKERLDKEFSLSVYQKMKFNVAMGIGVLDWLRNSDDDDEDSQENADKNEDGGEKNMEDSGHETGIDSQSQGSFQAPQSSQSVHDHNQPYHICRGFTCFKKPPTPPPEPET
Chain of Potassium voltage-gated channel subfamily KQT member 2 (O88943 whole entry): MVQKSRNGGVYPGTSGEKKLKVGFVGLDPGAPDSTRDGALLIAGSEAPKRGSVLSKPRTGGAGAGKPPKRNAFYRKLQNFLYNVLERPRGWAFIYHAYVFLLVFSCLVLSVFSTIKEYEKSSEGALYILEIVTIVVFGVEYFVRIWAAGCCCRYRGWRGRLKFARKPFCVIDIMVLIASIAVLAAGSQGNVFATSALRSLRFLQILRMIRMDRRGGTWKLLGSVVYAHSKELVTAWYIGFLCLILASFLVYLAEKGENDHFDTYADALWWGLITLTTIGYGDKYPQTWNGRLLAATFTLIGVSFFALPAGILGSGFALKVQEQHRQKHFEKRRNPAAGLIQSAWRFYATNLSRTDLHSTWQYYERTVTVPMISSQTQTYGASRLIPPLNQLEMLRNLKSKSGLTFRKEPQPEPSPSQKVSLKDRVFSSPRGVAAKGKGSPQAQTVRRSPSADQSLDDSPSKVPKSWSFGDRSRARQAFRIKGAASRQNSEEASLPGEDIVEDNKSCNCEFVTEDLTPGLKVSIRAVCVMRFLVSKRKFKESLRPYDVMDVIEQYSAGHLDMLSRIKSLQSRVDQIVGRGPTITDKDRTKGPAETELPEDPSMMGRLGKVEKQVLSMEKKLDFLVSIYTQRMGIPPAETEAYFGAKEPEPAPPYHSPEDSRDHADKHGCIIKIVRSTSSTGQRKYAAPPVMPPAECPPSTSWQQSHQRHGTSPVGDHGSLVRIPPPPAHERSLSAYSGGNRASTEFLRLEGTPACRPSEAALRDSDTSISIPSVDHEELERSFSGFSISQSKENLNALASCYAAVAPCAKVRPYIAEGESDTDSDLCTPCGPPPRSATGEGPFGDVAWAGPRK
Chain of Phosphomannomutase 2 (O15305 whole entry): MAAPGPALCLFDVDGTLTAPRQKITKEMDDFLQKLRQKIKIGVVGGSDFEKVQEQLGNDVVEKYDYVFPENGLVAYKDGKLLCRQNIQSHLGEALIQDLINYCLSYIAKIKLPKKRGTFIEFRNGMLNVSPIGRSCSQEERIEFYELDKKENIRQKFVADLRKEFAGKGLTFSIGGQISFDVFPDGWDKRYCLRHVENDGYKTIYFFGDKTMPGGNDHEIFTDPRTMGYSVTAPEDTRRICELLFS

A word on the EC50: it is the concentration at which the effect is half-maximal. As to `O=C1C2(CCCC13COC(c1ccc(O)cc1)OC3)COC(c1ccc(O)cc1)OC2` (stereo not drawn), the 50% effective concentration (EC50) in [1] was 9.2 µM (active).
In general, AC50 refers to the concentration at which the activity in the assay is half-maximal. For the compound `O=c1c(-c2cc3ccccc3o2)[n+]([O-])c2ccccc2n1OCc1ccccn1`, in test [2], the AC50 is > 52 µM (inactive). In addition, the EC50 in [3] was 4.81 µM (active); in test [4] it was 65.5 µM (inconclusive).
For orientation: IC50 means the concentration that gives 50% inhibition. As to `CCOc1ccc(-c2n[nH]c(=S)[nH]2)cc1`, the IC50 in test [5] was > 100 µM (active); in test [6], 39.1 µM (active); in test [7] it was > 100 µM (inactive).
Consider `Cc1cc(C)c(NC(=O)CCC2CCCC2)c(C)c1`, for which the EC50 in test [8] was 0.49 µM (active).
On to `Cc1nnc(N/N=C\c2ccc(-c3ccccc3[N+](=O)[O-])o2)n1N`, for which the concentration at half-maximal activity (AC50) in [9] was 58.9 µM (active); in test [12], 10.3 µM (active); in test [13], 7.3 µM (active). In addition, the concentration for half-maximal inhibition (IC50) in [10] was > 50 µM (not active). In addition, the EC50 in [11] is 23.5 µM (active).

The values above are taken from ChEMBL document CHEMBL1201862, “PubChem BioAssay data set” (2004).
